According to patent US20120197059A1, “UBIQUITIN INTERACTING MOTIF PEPTIDES AS CANCER THERAPEUTICS” (priority 2011, published 2012):

Tests used:
[1] = in vivo; cited from earlier work
[2] = free acid; cited from earlier work
VEGFR-2 = experiment: VEGF signaling assay with Dynasore, western blotting; format: cell-based, human; conditions: HUVEC, 40 or 80 μM Dynasore, VEGF-A 50 ng/ml
gliomas = conditions: given before, at the time of or after tumor implantation; cited from earlier work
[3] = cited from earlier work
retina angiogenesis = experiment: Retinal angiogenic sprouting in EC-iDKO P6 pups, isolectin B4 staining; format: in vivo, mice; conditions: IP/intraocular injection
Protocol: Immunohistochemistry and immunofluorescence of tissue samples. Immunohistochemistry and immunofluorescence were performed as described with modifications (Chen et al., 1998; Chen et al., 2009). • E9/10 Hind Brain: Embryos were harvested at E9 or E10 and fixed. Hindbrain was harvested and processed for staining with anti-CD31 and donkey anti-rat Alex Fluor 488 secondary antibody. • P6 Skin: Wild-type or EC-iDKO pups were injected intraperitoneally with 5 mg/kg (body weight) of 4-hydroxytamoxifen (10 mg/ml of 4-Hydroxytamoxifen resuspended in 10% of ethanol and 90% of DMSO) per day from postnatal day 1 (P1) to P3. Pups were euthanized at P6 and skin from abdomen was harvested and processed for whole mount staining with anti-CD31 and donkey anti-rat Alexa Fluor 488 secondary antibody. • P6 Retina: Wild-type or EC-iDKO Pups were injected with 4-hydroxytamoxifen as described above per day from postnatal day 2 (P2) to P4. P6 pups were euthanized and whole eyes harvested. […]
Receptor tyrosine kinase inhibitors injection. […] For western blot analysis, skin and heart tissues were collected from WT P6 pups injected either with DMSO or inhibitors and analyzed for phospho-Akt and total Akt.

DKO MECs = experiment: BrdU labeling of mouse endothelial cells; format: cell-based
Protocol: BrdU labeling. BrdU labeling of Mouse Endothelial Cells. WT and DKO MECs were grown in a 48-well plate until they reached 50% percent confluency. Cells were starved overnight and stimulated with growth factors or growth factors plus inhibitors for 6 h. BrdU labeling and detection kit (Roche) was then used to label the proliferating cells. Briefly, cells were incubated with BrdU labeling medium (1:500 diluted in medium) for 3 h. Cells were washed three times with wash buffer and fixed with ethanol for 20 min at −20° C. followed by washing the cells three times with wash buffer and incubated with 6M HCl/0.1% Triton for 30 minutes at room temperature. This was followed by six washes with PBS/0.1% Triton. Cells were blocked with PBS/0.3% Triton/3% BSA/3% donkey serum for 30 min at room temperature followed by incubation with anti-BrdU working solution for 30 minutes at 37° C. After three washes with wash buffer cells were again incubated with donkey anti-mouse Ig-fluorescein for 30 minutes at 37° C. After washing the cells three times with wash buffer they were stained with DAPI and visualized using Olympus Fluorescent microscope. Percentage of proliferating cells was calculated based on the ratio of BrdU-positive cells versus DAPI-positive cells.

CC(C)(C)[N+]([O-])=Cc1ccc(S(=O)(=O)O)cc1S(=O)(=O)O [2,4-ds PBN, 2,4-disulfonyl phenyl-tert-butyl nitrone]
efficacy as compared to PBN [1]: unexpected increase
potency as compared to PBN [1]: increase in potency
toxicity as compared to PBN [1]: marked and highly significant decrease
solubility in water [2]: greater than 1 gram/ml

O=C(N/N=C/c1ccc(O)c(O)c1)c1cc2ccccc2cc1O [Dynasore]
total levels of VEGFR-2 and phosphorylation of VEGFR-2 and its downstream signaling effectors (VEGFR-2): dramatically increased

CC(C)(C)[N+]([O-])=Cc1ccccc1 [PBN, phenyl N-tert-butyl nitrone]
glioma tumor development (gliomas): able to control tumor development
tissue distribution ([3]; rat, in vivo): readily and rapidly distributed almost equally to all tissues
half-life ([3]; rats): about 132 minutes

CC(C)c1cc(/C=C(\C#N)C(=O)NCCCc2ccccc2)cc(C(C)C)c1O [inhibitors to VEGFR-2]
elevated angiogenic sprouting in EC-iDKO retina (retina angiogenesis): reversed
VEGF-increased proliferation of DKO MECs (DKO MECs): abrogated
